Test results published in PMC3091653, “A new family of phosphoinositide phosphatases in microorganisms: identification and biochemical analysis” (BMC Genomics, 2010).

Target: T1, LM1 (Leishmania major, UniProt Q4QBX1)
T1 construct: gene LMJF_22_0250; pET14, His6-tagged (kept), frame shift of original clone removed by mutagenesis; E. coli BL21 (DE3)
Test: malachite green phosphate release
Assay type: biochemical
Conditions: pH 6, 37°C, 100-125 μM substrate

T1 sequence (Q4QBX1 entry or part of it): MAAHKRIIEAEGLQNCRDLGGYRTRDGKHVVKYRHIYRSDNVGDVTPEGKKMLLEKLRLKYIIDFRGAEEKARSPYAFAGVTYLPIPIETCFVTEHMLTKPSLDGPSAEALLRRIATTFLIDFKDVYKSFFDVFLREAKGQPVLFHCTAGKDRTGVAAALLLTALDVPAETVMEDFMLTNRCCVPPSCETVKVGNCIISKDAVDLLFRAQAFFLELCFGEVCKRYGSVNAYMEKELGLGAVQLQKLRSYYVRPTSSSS

SMILES: CCCCCCCC(=O)OC[C@H](COP(=O)(O)O[C@@H]1[C@H](O)[C@H](OP(=O)(O)O)[C@@H](O)[C@H](O)[C@H]1O)OC(=O)CCCCCCC [diC8-PI(3)P]
- malachite green phosphate release: Both Lmo1935 and LM1 show also activity towards mono-phosphorylated PIs
